Key:
[1] = system: MDA-MB-361 human breast cancer xenografts; assay: Antitumor activity, multiple dosing schedules, MDA-MB-361 xenografts (Example 41); format: in vivo, Mus musculus; conditions: Day 28
Protocol: Compound A was prepared in 100% PEG400 every 5-7 days and stored at approximately 25° C., shielded from light. The control article used in this study was 100% PEG400.
Low passage MDA-MB-361 cells were grown in Dulbecco's Modified Eagle's Medium (DMEM) media supplemented with 20% fetal bovine serum (FBS) and 1× penicillin/streptomycin (Invitrogen) until approximately 80% confluency was reached. Prior to injection, the cells were detached with Trypsin (Invitrogen), washed twice with phosphate buffered saline (PBS), and resuspended in RPMI (Roswell Park Memorial Institute) media (Invitrogen) without supplements. Cells were resuspended to a final concentration of 10.0×10^7 cells/mL in DMEM media without supplements, with 50% Matrigel (BD Biosciences). MDA-MB-361 cells (10.0×10^6 cells per animal in 0.1-mL injection volume) were implanted SC into the flank of female athymic nude mice. The animals used in this study are described in the following table.
4-5 week old female athymic nude mice were inoculated SC in flank (cell suspension in serum free DMEM and 50% Matrigel) with 10.0×10^6 MDA-MB-361 cells. Tumor growth was monitored with vernier calipers. The mean TV (MTV) was calculated using the formula V=W^2×L/2. When the MTV reached approximately 280 mm^3, the animals were randomized into 14 treatment groups (n=5/group). […] Tumor growth and body weight were measured twice per week. Percent TGI and body weight change were calculated on Day 28. Treatment started on Day 0 for 28 days. Antitumor activity was determined on day 28 of treatment by calculating the percent TGI using
Percent TGI=(mean tumor volume [MTV] of the control group−MTV of a treated group)/MTV of the control group×100. Equation 1
(§1) The differences in the tumor growth trends over time between pairs of treatment groups were assessed using linear mixed effects regression models. These models account for the fact that each animal was measured at multiple time points. A separate model was fit for each comparison, and the area under the curve (AUC) values for each treatment group were calculated using the predicted values from the model. The percent decrease in AUC (ΔAUC) relative to the reference group was then calculated.
(§2) Drug combinations were assessed for synergy using observed AUC values. The change in AUC relative to the control was calculated for both single agent treatment groups as well as the combination group. The interaction between the two compounds was then assessed by comparing the change in AUC observed in the combination group to the sum of the changes observed in both single agents. The results can be divided into four categories: synergistic, additive, sub-additive, and antagonistic. Further details regarding combination analyses are provided in the appendix. All p values less than 0.05 were considered significant.

[2] = system: HCC70 human breast cancer xenografts; assay: Antitumor activity, multiple dosing schedules, HCC70 xenografts (Example 43); format: in vivo, Mus musculus; conditions: Day 35
Protocol: Compound A was prepared in 5% NMP+95% PEG400 every 5-7 days and stored at approximately 25° C., shielded from light. The control article used in this study was 5% NMP+95% PEG400. Compounds were completely dissolved in NMP by sonication followed by the addition of the appropriate volume of PEG400. The solution was vortexed and sonicated again to ensure complete mixing.
Low passage HCC70 cells (ATCC) were grown in RPMI (Life Technologies) supplemented with 10% Fetal Bovine Serum (FBS) (PAA Laboratories Pty Ltd) and 1× penicillin-streptomycin (Life Technologies) and supplied at a concentration of 5.0×10^7 cells/mL in serum-free RPMI and 50% Matrigel (BD Biosciences). HCC70 cells (5.0×10^6 cells/animal, 0.1-mL injection volume) were implanted subcutaneously (SC) into flank of female athymic nude mice. The animals used in this study are described in the following table.
Five-week old female athymic nude mice were inoculated SC in flank (cell suspension in serum free RPMI and 50% Matrigel) with 5.0×10^6 HCC70 cells. Tumor growth was monitored with vernier calipers. The mean TV (MTV) was calculated using the formula V=W^2×L/2. When the MTV reached approximately 160 to 180 mm^3, the animals were randomized into 13 treatment groups (n=5/group). […] Tumor growth and body weight were measured twice per week. Percent TGI and body weight change were calculated on Day 35. Treatment started on Day 0 for 28 days. Antitumor activity was determined by calculating the percent TGI using Equation 1: Percent TGI=(mean tumor volume [MTV] of the control group−MTV of a treated group)/MTV of the control group×100.
as §1, §2

Row | Structure (SMILES) | TGI ([1]; 60 mg/kg QD PO) [%] | TGI ([1]; 70 mg/kg QD 3on/4off PO) [%] | TGI ([1]; 140 mg/kg QD 3on/4off PO) [%] | TGI ([1]; 210 mg/kg QW PO) [%] | TGI ([2]; 70 mg/kg QD 3on/4off PO, not significantly different from control) [%] | TGI ([2]; 140 mg/kg QD 3on/4off PO) [%] | TGI ([2]; 210 mg/kg QW PO, not significantly different from control) [%] | TGI ([2]; 420 mg/kg QW PO) [%] | TGI ([1]; 0.3 mg/kg QD PO) [%] | TGI ([1]; 1.0 mg/kg QD 3on/4off PO) [%] | TGI ([1]; 3.0 mg/kg QW PO) [%] | TGI ([2]; 0.3 mg/kg QD PO) [%] | TGI ([2]; 1.0 mg/kg QD 3on/4off PO) [%] | TGI ([2]; 3.0 mg/kg QW PO) [%]
1 | Nc1nc2cc(-c3ccc4ncc(C(=O)N5CCOCC5)n4c3)ccc2o1 [Compound A] | 84.5 | 76.0 | 84.2 | 64.7 | 19.4 | 41.0 | 21.0 | 40.8 | – | – | – | – | – | –
2 | CC(C)n1nc(-c2ccc3oc(N)nc3c2)c2c(N)ncnc21 [Compound B] | – | – | – | – | – | – | – | – | 71.1 | 63.6 | 52.7 | 36.9 | 47.2 | 35.8

Source: patent US20150087627A1, “COMBINATION OF KINASE INHIBITORS AND USES THEREOF” (Intellikine LLC, priority 2011, published 2015)
